Data: PMC6680840 (Molecules, 2019)
Where “and” joins values, the source holds several entries; their conditions need not be identical. Equal entries are not always repeated.

Experiments:
[1] = target: T1, BChE (EC 3.1.1.8, from human serum) (Homo sapiens, UniProt P06276); experiment: biochemical; settings: for BChE IR (%) inhibition ratio: at 50 μM; for IC50: mean ± SD of three separate experiments
T1 construct: BChE (EC 3.1.1.8, from human serum); purchased Sigma-Aldrich (St. Louis, MO, USA); host or cells: human serum
T1 sequence (P06276 29-602): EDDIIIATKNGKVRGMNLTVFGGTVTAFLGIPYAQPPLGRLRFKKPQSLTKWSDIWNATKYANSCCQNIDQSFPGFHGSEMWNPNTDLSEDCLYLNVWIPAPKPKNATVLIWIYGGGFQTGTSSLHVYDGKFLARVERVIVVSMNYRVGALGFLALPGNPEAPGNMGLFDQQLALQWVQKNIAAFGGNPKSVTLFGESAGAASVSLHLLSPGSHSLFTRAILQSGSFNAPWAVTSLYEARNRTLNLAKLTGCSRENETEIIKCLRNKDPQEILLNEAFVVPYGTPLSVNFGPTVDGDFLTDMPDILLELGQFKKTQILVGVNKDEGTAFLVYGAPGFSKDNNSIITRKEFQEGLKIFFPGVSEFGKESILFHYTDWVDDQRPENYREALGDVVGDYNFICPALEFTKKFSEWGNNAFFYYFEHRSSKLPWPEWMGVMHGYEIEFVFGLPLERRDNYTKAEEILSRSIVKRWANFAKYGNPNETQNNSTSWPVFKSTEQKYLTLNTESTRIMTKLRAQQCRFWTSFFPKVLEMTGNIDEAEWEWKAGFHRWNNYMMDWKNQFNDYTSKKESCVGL
Experimental: (§1) BChE (EC 3.1.1.8, from human serum), AChE (EC […]), butyrylthiocholine (BUC) iodide, and acetylthiocholine (ATC) iodide were purchased from Sigma-Aldrich (St. Louis, MO, USA). Enzyme was dissolved and pre-prepared at 2.0 U/mL. 10 μL of enzyme, 20 μL of 0.01 M 5,5′-dithiobis(2-nitrobenzoic acid), 10 μL of tested compound, and 40 μL of PBS were pre-incubated together for 5 min. Io initiate the reaction, 20 μL of 0.01 M BUC or ATC was added. The activity was determined by measuring the increase in absorbance at 410 nm at 37 °C in 2 min intervals using Tecan Spark multimode microplate reader (Mannedorf, Switzerland). The percentage of inhibition (I) was calculated according to the formula: I = (Ac − Ai)/Ac × 100%, with Ai and Ac representing the change in the absorbance in the presence of an inhibitor and without an inhibitor, respectively.

[2] = target: T2, AChE (from human erythrocyte) (Homo sapiens, UniProt P22303); experiment: biochemical; settings: for AChE IR (%) inhibition ratio: at 50 μM; for IC50: mean ± SD of three separate experiments
T2 construct: AChE (EC 3.1.1.8, from human erythrocyte); purchased Sigma-Aldrich (St. Louis, MO, USA); host or cells: human erythrocyte
T2 sequence (P22303 other isoform, or with tags, fused parts or gaps): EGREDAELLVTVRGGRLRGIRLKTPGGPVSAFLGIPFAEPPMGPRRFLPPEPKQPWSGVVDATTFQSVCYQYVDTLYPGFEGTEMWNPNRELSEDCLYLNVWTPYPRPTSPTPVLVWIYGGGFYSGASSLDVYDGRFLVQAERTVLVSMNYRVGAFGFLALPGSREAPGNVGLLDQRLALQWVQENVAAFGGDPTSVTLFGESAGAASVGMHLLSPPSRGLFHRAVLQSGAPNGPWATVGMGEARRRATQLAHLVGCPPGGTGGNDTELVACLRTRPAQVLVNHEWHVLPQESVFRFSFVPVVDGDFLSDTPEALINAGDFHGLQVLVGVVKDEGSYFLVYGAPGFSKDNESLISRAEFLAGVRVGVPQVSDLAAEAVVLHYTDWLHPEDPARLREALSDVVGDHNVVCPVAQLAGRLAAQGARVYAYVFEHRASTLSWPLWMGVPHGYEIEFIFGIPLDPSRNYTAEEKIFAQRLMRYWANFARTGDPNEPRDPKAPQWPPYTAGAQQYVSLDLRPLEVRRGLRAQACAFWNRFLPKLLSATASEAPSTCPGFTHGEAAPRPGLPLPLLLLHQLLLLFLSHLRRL
Experimental: as §1

[3] = test system: Aβ1-42-induced toxicity in SH-SY5Y cells; experiment: Protective activity against Aβ1-42-induced toxicity, MTT method; assay type: cell-based; settings: compound at 10 μM, 10 μM Aβ1-42 for 24h
Experimental: Based on this observation, compound 23 might be a more promising protective agent against Aβ1-42-induced toxicity on the SH-SY5Y cell model.
The MTT method was used to test the cytotoxicity and neuroprotective activity evaluation of compounds. The detailed procedure was included in Supplementary Materials. […]
formazan crystals. The formazan dye product was measured by the absorbance at 490 nm on a Tecan Spark multimode microplate reader (Tecan, Switzerland).
Neuroprotective activity assay
SH-SY5Y cells were maintained at 37 °C in a humidified atmosphere containing 5% CO2. Cells were seeded into multi-well plates at a density of 2~2.5 × 10^5 cells/mL in DMEM medium, supplemented with 10% heat-inactivated bovine calf serum (Gibco, South America Origin). Experiments were carried out in 24 h after cells were seeded.
Aβ1–42 were stored at 4 °C until 0.1 mM stock solutions were prepared in phosphate bufer saline (PBS) on the day of application to cultures. Th e compounds were first dissolved with DMSO and then diluted with DMEM medium. After pretreatment with the compounds for 2 h, Aβ1–42 were added to SH-SY5Y cell cultures in 24 h. Assays for cell viability were performed in 24 h after cultured in fresh medium .

Cc1ccc2[nH]cc(CCNC(=O)c3ccc(CN4CCc5ccccc5C4)cc3)c2c1 [Compound 29, 4-((3,4-dihydroisoquinolin-2(1H)-yl)methyl)-N-(2-(5-methyl-1H-indol-3-yl)ethyl)benzamide]
BChE IR (%) inhibition ratio [1]: 6.5%
AChE IR (%) inhibition ratio [2]: 4.6%

O=C(Nc1cccc(F)c1)c1ccc(CN2CCc3ccccc3C2)cc1 [Compound 17, 4-((3,4-dihydroisoquinolin-2(1H)-yl)methyl)-N-(3-fluorophenyl)benzamide]
BChE IR (%) inhibition ratio [1]: 10.0%
AChE IR (%) inhibition ratio [2]: 7.7%

O=C(Nc1ccc(Br)cc1)c1ccc(CN2CCc3ccccc3C2)cc1 [Compound 25, N-(4-bromophenyl)-4-((3,4-dihydroisoquinolin-2(1H)-yl)methyl)benzamide]
BChE IR (%) inhibition ratio [1]: 8.1%
AChE IR (%) inhibition ratio [2]: 40.6%

O=C(c1ccc(CN2CCc3cc(Br)ccc3C2)cc1)N1CCCC1 [Compound 11, (4-((6-bromo-3,4-dihydroisoquinolin-2(1H)-yl)methyl)phenyl)(pyrrolidin-1-yl)methanone]
IC50 [1]: 8.38 ± 0.65 µM
IC50 [2]: 30.6 ± 1.82 µM

O=C(c1ccc(CN2CCc3ccccc3C2)cc1)N1CCOCC1 [Compound 10, (4-((3,4-dihydroisoquinolin-2(1H)-yl)methyl)phenyl)(morpholino)methanone]
BChE IR (%) inhibition ratio [1]: 11.2%
AChE IR (%) inhibition ratio [2]: 3.4%

COc1ccc2c(c1)CCN(Cc1ccc(C(=O)N3CCCC3)cc1)C2 [Compound 13, (4-((6-methoxy-3,4-dihydroisoquinolin-2(1H)-yl)methyl)phenyl)(pyrrolidin-1-yl)methanone]
IC50 [1]: 12.6 ± 0.88 µM
IC50 [2]: 12.1 ± 0.9 µM

O=C(NCc1ccc(F)cc1)c1ccc(CN2CCc3ccccc3C2)cc1 [Compound 19, 4-((3,4-dihydroisoquinolin-2(1H)-yl)methyl)-N-(4-fluorobenzyl)benzamide]
BChE IR (%) inhibition ratio [1]: 83.9%
IC50 [1]: 14.8 ± 0.58 µM
AChE IR (%) inhibition ratio [2]: 2.3%

O=C(Oc1ccccc1Br)c1ccc(CN2CCc3ccccc3C2)cc1 [Compound 26, 2-bromophenyl 4-((3,4-dihydroisoquinolin-2(1H)-yl)methyl)benzoate]
BChE IR (%) inhibition ratio [1]: 11%
AChE IR (%) inhibition ratio [2]: 26.2%

O=C(Sc1ccccc1Br)c1ccc(CN2CCc3ccccc3C2)cc1 [Compound 27, S-(2-bromophenyl) 4-((3,4-dihydroisoquinolin-2(1H)-yl)methyl)benzothioate]
BChE IR (%) inhibition ratio [1]: 1.5%
AChE IR (%) inhibition ratio [2]: 22.8%

CCNCCNC(=O)c1ccc(CN2CCc3ccccc3C2)cc1 [Compound 4, 4-((3,4-dihydroisoquinolin-2(1H)-yl)methyl)-N-(2-(ethylamino)ethyl)benzamide]
BChE IR (%) inhibition ratio [1]: 27.2%
AChE IR (%) inhibition ratio [2]: 8.8%

O=C(Nc1cccc(Br)c1)c1ccc(CN2CCc3ccccc3C2)cc1 [Compound 24, N-(3-bromophenyl)-4-((3,4-dihydroisoquinolin-2(1H)-yl)methyl)benzamide]
BChE IR (%) inhibition ratio [1]: 35.1%
AChE IR (%) inhibition ratio [2]: 21.6%

CCN1CCCC1CNC(=O)c1ccc(CN2CCc3ccccc3C2)cc1 (stereo not shown) [Compound 8, 4-((3,4-dihydroisoquinolin-2(1H)-yl)methyl)-N-((1-ethylpyrrolidin-2-yl)methyl)benzamide]
BChE IR (%) inhibition ratio [1]: 63.0%
IC50 [1]: 25 ± 1.27 µM
AChE IR (%) inhibition ratio [2]: 13.3%

O=C(NCCN1CCOCC1)c1ccc(CN2CCc3ccccc3C2)cc1 [Compound 6, 4-((3,4-dihydroisoquinolin-2(1H)-yl)methyl)-N-(2-morpholinoethyl)benzamide]
BChE IR (%) inhibition ratio [1]: 19.1%
AChE IR (%) inhibition ratio [2]: 13.4%

O=C(O[C@@H]1Cc2c(O)cc(O)cc2O[C@@H]1c1cc(O)c(O)c(O)c1)c1cc(O)c(O)c(O)c1 [EGCG, epigallocatechin gallate, reference compound]
cell viability of Aβ1-42-treated SH-SY5Y cells [3]: 87.18 ± 1.29%

CCN(CC)CCNC(=O)c1ccc(CN2CCc3ccccc3C2)cc1 [Compound 1, N-(2-(diethylamino)ethyl)-4-((3,4-dihydroisoquinolin-2(1H)-yl)methyl)benzamide]
BChE IR (%) inhibition ratio [1]: 68.4%
IC50 [1]: 17.9 µM
AChE IR (%) inhibition ratio [2]: 26.6%
IC50 [2]: > 50 µM

O=C(NCCc1c[nH]c2ccccc12)c1ccc(CN2CCc3ccccc3C2)cc1 [Compound 28, N-(2-(1H-indol-3-yl)ethyl)-4-((3,4-dihydroisoquinolin-2(1H)-yl)methyl)benzamide]
BChE IR (%) inhibition ratio [1]: 1.3%
AChE IR (%) inhibition ratio [2]: 8.4%

O=C(Nc1ccccc1F)c1ccc(CN2CCc3ccccc3C2)cc1 [Compound 16, 4-((3,4-dihydroisoquinolin-2(1H)-yl)methyl)-N-(2-fluorophenyl)benzamide]
BChE IR (%) inhibition ratio [1]: 74.7%
IC50 [1]: 6.9 µM and 6.93 µM
AChE IR (%) inhibition ratio [2]: 2.1%

COc1ccc2[nH]cc(CCNC(=O)c3ccc(CN4CCc5ccccc5C4)cc3)c2c1 [Compound 30, 4-((3,4-dihydroisoquinolin-2(1H)-yl)methyl)-N-(2-(5-methoxy-1H-indol-3-yl)ethyl)benzamide]
BChE IR (%) inhibition ratio [1]: 1.1%
AChE IR (%) inhibition ratio [2]: 8.3%

O=C(c1ccc(CN2CCc3ccc(Br)cc3C2)cc1)N1CCCC1 [Compound 12, (4-((7-bromo-3,4-dihydroisoquinolin-2(1H)-yl)methyl)phenyl)(pyrrolidin-1-yl)methanone]
IC50 [1]: 39.4 ± 2.25 µM
IC50 [2]: > 50 µM

O=C(Nc1ccc(F)cc1)c1ccc(CN2CCc3ccccc3C2)cc1 [Compound 18, 4-((3,4-dihydroisoquinolin-2(1H)-yl)methyl)-N-(4-fluorophenyl)benzamide]
BChE IR (%) inhibition ratio [1]: 14.1%
AChE IR (%) inhibition ratio [2]: 7.0%

O=C(NCCN1CCCC1)c1ccc(CN2CCc3ccccc3C2)cc1 [Compound 7, 4-((3,4-dihydroisoquinolin-2(1H)-yl)methyl)-N-(2-(pyrrolidin-1-yl)ethyl)benzamide]
IC50 [1]: 15.2 ± 2.33 µM
AChE IR (%) inhibition ratio [2]: 4.4%

O=C(Nc1ccc(Cl)cc1F)c1ccc(CN2CCc3ccccc3C2)cc1 [Compound 21, N-(4-chloro-2-fluorophenyl)-4-((3,4-dihydroisoquinolin-2(1H)-yl)methyl)benzamide]
BChE IR (%) inhibition ratio [1]: 38.6%
AChE IR (%) inhibition ratio [2]: 5%

O=C(Nc1ccc(Br)cc1F)c1ccc(CN2CCc3ccccc3C2)cc1 [Compound 22, N-(4-bromo-2-fluorophenyl)-4-((3,4-dihydroisoquinolin-2(1H)-yl)methyl)benzamide]
BChE IR (%) inhibition ratio [1]: 15.4%
AChE IR (%) inhibition ratio [2]: 28.3%

CN(C)CCNC(=O)c1ccc(CN2CCc3ccccc3C2)cc1 [Compound 3, 4-((3,4-dihydroisoquinolin-2(1H)-yl)methyl)-N-(2-(dimethylamino)ethyl)benzamide]
BChE IR (%) inhibition ratio [1]: 36.9%
AChE IR (%) inhibition ratio [2]: 11.4%

O=C(NNc1ccc(F)cc1)c1ccc(CN2CCc3ccccc3C2)cc1 [Compound 20, 4-((3,4-dihydroisoquinolin-2(1H)-yl)methyl)-N2019-(4-fluorophenyl)benzohydrazide]
BChE IR (%) inhibition ratio [1]: 13.2%
AChE IR (%) inhibition ratio [2]: 21.8%

O=C(Nc1ccccc1)c1ccc(CN2CCc3ccccc3C2)cc1 [Compound 15, 4-((3,4-dihydroisoquinolin-2(1H)-yl)methyl)-N-phenylbenzamide]
BChE IR (%) inhibition ratio [1]: 23.7%
AChE IR (%) inhibition ratio [2]: 8%

COC(CNC(=O)c1ccc(CN2CCc3ccccc3C2)cc1)OC [Compound 5, 4-((3,4-dihydroisoquinolin-2(1H)-yl)methyl)-N-(2,2-dimethoxyethyl)benzamide]
BChE IR (%) inhibition ratio [1]: 56.6%
IC50 [1]: 38.1 ± 1.68 µM
AChE IR (%) inhibition ratio [2]: 2.7%

COc1cc2c(cc1OC)CN(Cc1ccc(C(=O)N3CCCC3)cc1)CC2 [Compound 14, (4-((6,7-dimethoxy-3,4-dihydroisoquinolin-2(1H)-yl)methyl)phenyl)(pyrrolidin-1-yl)methanone]
IC50 [2]: 18.2 ± 0.86 µM

CC(C)N(CCNC(=O)c1ccc(CN2CCc3ccccc3C2)cc1)C(C)C [Compound 2, 4-((3,4-dihydroisoquinolin-2(1H)-yl)methyl)-N-(2-(diisopropylamino)ethyl)benzamide]
BChE IR (%) inhibition ratio [1]: 76.4%
IC50 [1]: 9.98 ± 0.89 µM
AChE IR (%) inhibition ratio [2]: 56.1%
IC50 [2]: 21.5 ± 0.98 µM
